Results published in patent publication US7183260B2, “C-terminal modified oxamyl dipeptides as inhibitors of the ICE/ced-3 family of cysteine proteases” (Idun Pharmaceuticals, Inc., priority 1998, dated 2007).

Experiments:
Format in all cases: biochemical
Conditions in all cases: continuous assay 60 min, reaction initiated by adding enzyme to substrate-inhibitor mixture
MCH-5 = MCH-5 (Homo sapiens, UniProt Q14790); assay: Dissociation constant Ki and irreversible rate constant k3 for irreversible inhibitors (Mch5)
MCH-5, sequence (Q14790 217-374 limits assumed, species assumed): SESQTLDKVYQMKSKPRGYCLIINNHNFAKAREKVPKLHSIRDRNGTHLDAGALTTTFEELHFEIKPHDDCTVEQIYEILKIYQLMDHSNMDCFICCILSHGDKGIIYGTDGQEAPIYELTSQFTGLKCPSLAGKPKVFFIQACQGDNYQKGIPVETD
MCH-5, sequence (Q14790 385-479 limits assumed, species assumed): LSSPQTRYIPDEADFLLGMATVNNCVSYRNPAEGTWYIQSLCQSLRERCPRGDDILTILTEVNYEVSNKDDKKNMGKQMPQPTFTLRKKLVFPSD

MCH-2 = target: T1, MCH-2 (Homo sapiens, UniProt P55212); assay: Dissociation constant Ki and irreversible rate constant k3 for irreversible inhibitors (Mch2)
T1 sequence (P55212 24-179 limits assumed): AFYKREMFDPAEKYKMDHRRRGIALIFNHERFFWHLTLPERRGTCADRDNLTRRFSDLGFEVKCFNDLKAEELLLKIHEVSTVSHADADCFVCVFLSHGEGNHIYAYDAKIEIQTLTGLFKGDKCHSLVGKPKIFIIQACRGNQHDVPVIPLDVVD
T1 sequence (P55212 194-293 limits assumed): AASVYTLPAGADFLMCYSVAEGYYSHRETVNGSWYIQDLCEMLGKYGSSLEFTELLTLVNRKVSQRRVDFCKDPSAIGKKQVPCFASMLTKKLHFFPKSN

CPP32 = target: T2, CPP32 (Homo sapiens, UniProt P42574); assay: Dissociation constant Ki and irreversible rate constant k3 for irreversible inhibitors (CPP32)
T2 sequence (P42574 29-175 limits assumed): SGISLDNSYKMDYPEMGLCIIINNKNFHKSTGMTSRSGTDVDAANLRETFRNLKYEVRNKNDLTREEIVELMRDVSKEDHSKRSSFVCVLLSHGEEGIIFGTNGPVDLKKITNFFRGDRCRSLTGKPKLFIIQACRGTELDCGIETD
T2 sequence (P42574 176-277 limits assumed): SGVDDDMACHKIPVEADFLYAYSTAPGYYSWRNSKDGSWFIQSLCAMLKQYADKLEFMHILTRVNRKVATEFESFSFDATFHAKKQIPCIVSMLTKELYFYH

mICE = target: T3, mICE (Mus musculus, UniProt P29452); assay: Dissociation constant Ki and irreversible rate constant k3 for irreversible inhibitors (ICE)
T3 sequence (P29452 123-296 limits assumed): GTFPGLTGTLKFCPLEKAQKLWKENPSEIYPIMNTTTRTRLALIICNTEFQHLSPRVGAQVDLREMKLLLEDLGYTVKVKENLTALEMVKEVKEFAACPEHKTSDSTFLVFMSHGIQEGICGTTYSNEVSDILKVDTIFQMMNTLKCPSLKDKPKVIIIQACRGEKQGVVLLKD
T3 sequence (P29452 315-402 limits assumed): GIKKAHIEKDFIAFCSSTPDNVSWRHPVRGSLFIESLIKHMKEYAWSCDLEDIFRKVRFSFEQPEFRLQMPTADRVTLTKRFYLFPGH

Compound | Ki (MCH-5) [nM] | MCH-5 k3/Ki (MCH-5) | Ki (MCH-2) [nM] | MCH-2 k3/Ki (MCH-2) | CPP32 k3/Ki (CPP32) | Ki (CPP32) [nM] | Ki (mICE) [nM] | mICE k3/Ki (mICE)
CC(C)[C@H](NC(=O)C(=O)Nc1ccccc1C(C)(C)C)C(=O)N[C@@H](CC(=O)O)C(=O)COc1c(F)c(F)cc(F)c1F [Example 93] | 3 | 1,165,000 moles^−1 seconds^−1 | 41 | 112,000 moles^−1 seconds^−1 | 27,700 moles^−1 seconds^−1 | 353 | 6 | 2,052,000 moles^−1 seconds^−1
C[C@H](NC(=O)C(=O)NC1CCCCC1)C(=O)N[C@@H](CC(=O)O)C(=O)COC(=O)c1c(Cl)cccc1Cl [Example 55] | 2.6 | 2,140,000 moles^−1 seconds^−1 | 6.3 | 655,000 moles^−1 seconds^−1 | 1,174,000 moles^−1 seconds^−1 | 13 | 6.1 | 2,020,000 moles^−1 seconds^−1
COc1ccccc1NC(=O)C(=O)N[C@H](C(=O)N[C@@H](CC(=O)O)C(=O)COc1c(F)c(F)cc(F)c1F)C(C)C [Example 95] | 3 | 2,680,000 moles^−1 seconds^−1 | 88 | 61,500 moles^−1 seconds^−1 | 10,800 moles^−1 seconds^−1 | 1090 | 6 | 2,068,000 moles^−1 seconds^−1
C[C@H](NC(=O)C(=O)Nc1ccccc1-c1ccccc1)C(=O)N[C@@H](CC(=O)O)C(=O)COC(=O)c1c(Cl)cccc1Cl [Example 29] | 17 | 125,000 moles^−1 seconds^−1 | 9 | 219,000 moles^−1 seconds^−1 | 388,000 moles^−1 seconds^−1 | 15 | 38 | 259,000 moles^−1 seconds^−1
C[C@H](NC(=O)C(=O)Nc1ccccc1Cl)C(=O)N[C@@H](CC(=O)O)C(=O)COC(=O)c1c(Cl)cccc1Cl [Example 42] | 4.6 | 1,630,000 moles^−1 seconds^−1 | 7 | 745,000 moles^−1 seconds^−1 | 842,000 moles^−1 seconds^−1 | 21 | 7 | 1,940,000 moles^−1 seconds^−1
C[C@H](NC(=O)C(=O)Nc1cccc2c1CCCC2)C(=O)N[C@@H](CC(=O)O)C(=O)COC(=O)c1c(Cl)cccc1Cl [Example 49] | 4 | 1,920,000 moles^−1 seconds^−1 | 10 | 264,000 moles^−1 seconds^−1 | 260,000 moles^−1 seconds^−1 | 43 | 1.4 | 17,600,000 moles^−1 seconds^−1
CC(C)[C@H](NC(=O)C(=O)NC1CCCc2ccccc21)C(=O)N[C@@H](CC(=O)O)C(=O)COc1c(F)c(F)cc(F)c1F (stereo partly drawn) [Example 104] | 5.2 | 456,000 moles^−1 seconds^−1 | 13 | 160,000 moles^−1 seconds^−1 | 98,600 moles^−1 seconds^−1 | 84 | 4.5 | 2,320,000 moles^−1 seconds^−1
C[C@H](NC(=O)C(=O)Nc1ccccc1Cl)C(=O)N[C@@H](CC(=O)O)C(=O)COC(=O)c1c(Cl)cccc1Cl [Example 58] | 7.1 | 396,000 moles^−1 seconds^−1 | 18 | 281,000 moles^−1 seconds^−1 | 323,000 moles^−1 seconds^−1 | 43 | 54 | 278,000 moles^−1 seconds^−1
C[C@H](NC(=O)C(=O)Nc1ccccc1Cl)C(=O)N[C@@H](CC(=O)O)C(=O)COP(=O)(c1ccccc1)c1ccccc1 [Example 57] | 2.1 | 2,330,000 moles^−1 seconds^−1 | 13 | 373,000 moles^−1 seconds^−1 | 564,000 moles^−1 seconds^−1 | 44 | 5.3 | 1,980,000 moles^−1 seconds^−1
C[C@H](NC(=O)C(=O)Nc1ccccc1C(C)(C)C)C(=O)N[C@@H](CC(=O)O)C(=O)COP(=O)(c1ccccc1)c1ccccc1 [Example 47] | 8.7 | 589,000 moles^−1 seconds^−1 | 11 | 484,000 moles^−1 seconds^−1 | 395,000 moles^−1 seconds^−1 | 24 | 14 | 625,000 moles^−1 seconds^−1
CC(C)[C@H](NC(=O)C(=O)Nc1cccc2ccccc12)C(=O)N[C@@H](CC(=O)O)C(=O)COc1c(F)c(F)cc(F)c1F [Example 7] | 3.7 | – | 16 | – | – | 46 | 5.7 | –
